Data as given in patent publication US5486511A, “4-amino-17β-(cyclopropyloxy)androst-4-en-3-one, 4-amino-17β-(cyclopropylamino)androst-4-en-3-one and related compounds as C17-20 lyase and 5α-reductase” (Merrell Dow Pharmaceuticals Inc., priority 1994, dated 1996).

Biological target: T1, cynomolgus monkey 5α-reductase (Macaca fascicularis, UniProt Q28892)
T1 construct: microsomes were isolated from cynomolgus monkey prostate tissue; from tissue; host or cells: cynomolgus monkey prostate microsomes
T1 sequence (Q28892 1-254): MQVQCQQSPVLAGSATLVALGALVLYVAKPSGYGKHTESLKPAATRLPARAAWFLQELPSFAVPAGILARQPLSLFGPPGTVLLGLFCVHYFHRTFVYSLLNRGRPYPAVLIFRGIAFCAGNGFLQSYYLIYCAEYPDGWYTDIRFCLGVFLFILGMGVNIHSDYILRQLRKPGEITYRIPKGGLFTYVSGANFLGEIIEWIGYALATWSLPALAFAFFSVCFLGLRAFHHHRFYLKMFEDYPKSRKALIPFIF
Experiment: Inhibition of cynomolgus monkey prostatic 5α-reductase (prostate microsomes)
Format: biochemical
Conditions: for IC50: testosterone at Km level
Protocol: The activity of the present compounds as inhibitors of steroid 5α-reductase was determined using microsomal preparations of the 5α-reductase enzyme from laboratory prostate tissue. Specifically, microsomes were isolated from cynomolgus monkey prostate tissue. Protein concentration of the microsomal preparations was determined prior to use of the samples. Individual assays of cynomolgus monkey prostatic 5α-reductase activity contained 0.1M potassium phosphate-sodium citrate buffer (K-Na buffer, 1:1), pH 5.6, 0.1% bovine serum albumin (w/v), 1.0 mM sodium EDTA, 7 to 96 μg of microsomal protein, 1.0 mM NADPH, 5.0 mM glucose-6-phosphate, 1 IU/mL glucose-6 -phosphate dehydrogenase, [1,2-^3 H]-testosterone (0.15 μCi), unlabeled testosterone to yield the desired concentration of substrate, and inhibitor which was dissolved in dimethyl sulfoxide (DMSO) then diluted in K-Na buffer to yield a final assay concentration of 0.1% (v/v) DMSO. The same buffer and DMSO without inhibitor were used in control assays. Background radioactivity was determined from assays containing all components except enzyme. Assays were performed in duplicate. The reaction was initiated by the addition of testosterone and incubated for 20 minutes at 25° C. in a Dubnoff® shaker incubator. Compound to be tested for inhibition was added simultaneously with testosterone. The total volume of the assay was 100 μL.
The 5α-reductase reactions were terminated by the addition of 5 mL chloroform-methanol (2:1) and 0.9 mL water. The carrier steroids were added in the form of 2.5 μg each of testosterone, dihydrotestosterone, and 3,17-androstanediol. […]

Q: For `C[C@]12CC[C@H]3[C@@H](C=CC4=C(N)C(=O)CC[C@@]43C)[C@@H]1CC[C@@H]2OC1CC1` [Compound 1, 4-Amino-17β-(cyclopropyloxy)androsta-4,6-dien-3-one], which IC50 is on record?
A: 2.8 nM

Q: Which results are given for `C[C@]12CC[C@H]3[C@@H](CCC4=C(N)C(=O)CC[C@@]43C)[C@@H]1CC[C@@H]2OC1CC1` [Compound 2, 4-Amino-17β-(cyclopropyloxy)androst-4-en-3-one]?
A: Ki (testosterone 0.5 Km to 8 Km): 7.8 ± 0.7 nM; IC50: 7.4 nM
